Assay results from US11773157B2, “Compositions and methods for treating and preventing Staphylococcus aureus infections” (priority 2014, dated 2023).

Tested on: MRSA (NR 46223)
Test: In vivo survival, MRSA bacteremia with vancomycin co-treatment
Parameters: species or system Balb/C mice
Details: 0.5 mg vancomycin i.p. alone (0 mg PA8-G3), two hours prior to infection; 3×10^7 CFU i.v.; PBS 10%
Procedure: Referring to FIGS. 8A-C, at day 14, only 10% of the PBS treated mice survived, 30% of the vancomycin treated mice survived. […] Statistical analysis of the animal data was conducted using Kaplan-Meier Survival Analysis with a Mantel-Cox (logrank) test.

`CN[C@H](CC(C)C)C(=O)N[C@H]1C(=O)N[C@@H](CC(N)=O)C(=O)N[C@H]2C(=O)N[C@H]3C(=O)N[C@H](C(=O)N[C@H](C(=O)O)c4cc(O)cc(O)c4-c4cc3ccc4O)[C@H](O)c3ccc(c(Cl)c3)Oc3cc2cc(c3O[C@@H]2O[C@H](CO)[C@@H](O)[C@H](O)[C@H]2O[C@H]2C[C@](C)(N)[C@H](O)[C@H](C)O2)Oc2ccc(cc2Cl)[C@H]1O` [vancomycin, reference compound] was tested, and the “mice survived at day 14” value was 30%.
